Here are results for five compounds from patent publication US20090042863A1, “Therapeutic Agent for Diabetes” (Takeda Pharmaceutical Company Limited, priority 2005, published 2009).

Molecules are shown by their SMILES. Counter-ions that a name gives are not always drawn.

Holding throughout (assay type): in vivo
Test [1] has as its system db/db mouse. Kind of test: Pancreatic insulin content in db/db mice, Experimental Example 4 (pioglitazone, compound C). Particulars: male, 6-week-old, powder diet with pioglitazone hydrochloride 0.0075 (w/w)% as pioglitazone and/or compound C 0.1 (w/w)% free form for 26 consecutive days, pancreas isolated at day 28, mean ± SD, n=7. On the procedure: (§1) First, the mouse pancreas was homogenated in its 10 times weight of 74% ethanol (containing 0.15 mM hydrochloric acid). The obtained homogenate solution was left standing overnight under the shading conditions at 4° C., and centrifuged at 15000 rpm for 5 min. The obtained supernatant was appropriately diluted with PBS(−) (phosphate-buffered saline) containing 0.1% BSA (bovine serum albumin). The insulin content of the diluted solution was measured by radioimmunoassay (trade name: RAT INSULIN RIA KIT, manufactured by RINCO Research, U.S.A.), and the insulin content per pancreatic tissue weight was calculated. […]
(§2) In the above-mentioned Groups A-D, pancreas was isolated from the mice at day 28 from the start of the powder feed administration, and the pancreatic insulin content was measured.
(§3) The insulin content per pancreatic tissue weight was calculated in the same manner as in Experimental Example 1. […]

The subject of test [2] is db/db mouse. Kind of test: Pancreatic insulin content in db/db mice, Experimental Example 2 (voglibose, compound A). Particulars: male, 6-week-old, powder diet with voglibose 0.001 (w/w)% and/or compound A 0.03 (w/w)% free form for 27 consecutive days, pancreas isolated at day 29, mean ± SD, n=6. On the procedure: as §1
In the above-mentioned Groups A-D, pancreas was isolated from the mice at day 29 from the start of the powder feed administration, and the pancreatic insulin content was measured.
as §3

Test [3] has as its system db/db mouse. Kind of test: Pancreatic insulin content in db/db mice, Experimental Example 3 (pioglitazone, compound B). Particulars: male, 6-week-old, powder diet with pioglitazone hydrochloride 0.0075 (w/w)% as pioglitazone and/or compound B 0.03 (w/w)% free form for 26 consecutive days, pancreas isolated at day 28, mean ± SD, n=7. On the procedure: as §1, §2, §3

`N#Cc1ccccc1Cn1c(N2CCC[C@@H](N)C2)ncc(F)c1=O.O=C(O)C(O)C(O)C(=O)O` [compound C, 2-[2-(3-(R)-aminopiperidin-1-yl)-5-fluoro-6-oxo-6H-pyrimidin-1-ylmethyl]benzonitrile tartrate]: the Pancreatic insulin content in test [1] is given as 57.2 ± 17.8 ng/mg tissue.
Take `Cn1c(=O)cc(N2CCC[C@@H](N)C2)n(Cc2ccccc2C#N)c1=O.O=C(O)c1ccccc1` [compound A, 2-[[6-[(3R)-3-amino-1-piperidinyl]-3,4-dihydro-3-methyl-2,4-dioxo-1(2H)-pyrimidinyl]methyl]benzonitrile benzoate]: the Pancreatic insulin content in test [2] was 92.0 ± 37.0 ng/mg tissue.
Same read-out and setting: under `OCC(CO)N[C@H]1C[C@](O)(CO)[C@@H](O)[C@H](O)[C@H]1O` [voglibose] stands 198.1 ± 169.8 ng/mg tissue.
On to `CCc1ccc(CCOc2ccc(CC3SC(=O)NC3=O)cc2)nc1` (stereo not drawn) [pioglitazone, pioglitazone hydrochloride], for which the Pancreatic insulin content in test [3] and in test [1] was 74.8 ± 21.5 ng/mg tissue throughout.
In test [3], `Cn1c(=O)cc(N2CCC[C@@H](N)C2)n(Cc2cc(F)ccc2C#N)c1=O.O=C(O)CCC(=O)O` [compound B, 2-[[6-[(3R)-3-amino-1-piperidinyl]-3,4-dihydro-3-methyl-2,4-dioxo-1(2H)-pyrimidinyl]methyl]-4-fluorobenzonitrile succinate] yielded a Pancreatic insulin content of 58.1 ± 17.0 ng/mg tissue.
